Entries after “also recorded” stand apart in the source; their conditions may differ. Like-named read-outs stand apart in the source and are kept apart here.
Assays:
HLA-A2 molecules = target: T1, HLA-A2 molecules (Homo sapiens, UniProt P04439, D140Y/D185E/D98H/E176V/E277Q/G131W/G231S/I119V/I121R/I166T/I218V/L300P/L318F/N151K/N90K/P208A/P217A/Q86G/Q94H/R138H/R169H/T345S); assay: T2A2 binding of HPV-16 E6/E7 peptides to HLA-A2; set-up: T2A2 Binding: unit not given here
T1 construct: endogenous in cells; host or cells: T2A2 cells (T2 cell line expressing HLA-A2; only the column head names it)

CTL (T cells) = assay: IFN-γ production by CTL stimulated by autologous B cells pulsed with corresponding peptide; type: cell-based, human; set-up: key to IFN-γ: + denotes a greater level than the native epitope; = denotes the same level as the native epitope; − denotes a lower level than the native epitope; details: for interferon production (in words): T cells stimulated by peptide-pulsed autologous B cells
Text: Autologous B cells were pulsed with each native and agonist E6 peptides to stimulate production of interferon by T cells.
Autologous B cells were pulsed with each native and agonist E7 peptides to stimulate production of interferon by T cells.

[1] = test system: CaSki cervical carcinoma cell line (HPV16 E6 and E7 positive HLA-A2 positive); assay: Lysis of CaSki tumor cells by peptide-specific CTLs; type: cell-based, human; set-up: key to Lysis: + denotes a greater level than the native epitope; = denotes the same level as the native epitope; − denotes a lower level than the native epitope; details: for % specific lysis (SD), CaSki (HLA-A2+ HPV E6+ and E7+): CTLs at IVS5, effector-to-target ratio 25:1; for Lysis: level compared with the native epitope; for lysis of CaSki cervical carcinoma cells (in words): compared to T cells generated with the native epitope counterpart
Text: (§1) HPV-specific T cells were generated using infection of dendritic cells (DCs) with Ad-HPV followed by stimulation of the T cells with each agonist and native peptide. In particular, DCs were infected with Ad5 HPV at 20,000 MOI. Infected DCs were used to generate specific CTLs using autologous PBMC. Autologous DCs were used as APCs for three in vitro stimulations (IVS). Autologous peptide-pulsed B cells were used to re-stimulate antigen-specific CTLs for two additional IVS. CTLs were used at IVS5.
(§2) Results are expressed in % specific lysis (SD). Effector-to-target ratio used was 25:1. CTLs were established from a normal HLA-A2 donor. CaSki is a cervical carcinoma cell line (HPV16 E6 and E7 positive HLA-A2 positive). ASPC-1 is a pancreatic cancer cell line (HPV16 E6 and E7 negative HLA-A2 negative).

[2] = test system: ASPC-1 pancreatic cancer cell line (HPV16 E6 and E7 negative HLA-A2 negative); assay: Lysis of ASPC-1 control cells by peptide-specific CTLs; type: cell-based, human; details: CTLs at IVS5, effector-to-target ratio 25:1; for % specific lysis (SD), ASPC-1 (HLA-A2neg HPV E6neg and E7neg): Table 4; for % specific lysis (SD), ASPC-1: Table 5
Text: as §1, §2
as §2, with “HN-4 and HN-12 cells are head and neck squamous” for “CaSki is a cervical”, “lines (HLA-A2” for “line (HPV16 E6 and E7 positive HLA-A2”

[3] = test system: HPV-specific T cell lines; assay: IFN-γ production by HPV-specific T cell lines stimulated with Ad5-infected human dendritic cells; type: cell-based; details: for activation of T cells directed against the epitope (in words): human DCs infected with Ad-5[E1,E2b^neg]HPV
Description: Human DC (6 day culture in IL-4 and GM-CSF) were infected with Ad5 [E1,E2b]-HPV vector and Ad5 [E1,E2b]-Null at 1×10^5/well (24-well plate) in 0.5 ml of AIM-V. Ad5 vectors were used at 20,000 MOI for 1 hour and then 1.5 ml of AIM-V were added to each well. Infected DCs were incubated for 48 hours and then washed and used for stimulation of human antigen-specific T cells. Results are expressed in pg of IFN-γ per 5×10^5 T cells/ml. DC only=<0.73 pg/ml.

[4] = test system: HN-12 head and neck squamous carcinoma cell line (HLA-A2 positive); assay: Lysis of HN-12 cells by peptide-specific CTLs; type: cell-based, human; details: for % specific lysis (SD), HN-12: CTLs at IVS5, effector-to-target ratio 25:1; for lysis of HN-12 (in words): compared to native counterparts
Text: as §1
as §2, with “HN-4 and HN-12 cells are head and neck squamous” for “CaSki is a cervical”, “lines (HLA-A2” for “line (HPV16 E6 and E7 positive HLA-A2”

[5] = test system: HN-4 head and neck squamous carcinoma cell line (HLA-A2 positive); assay: Lysis of HN-4 cells by peptide-specific CTLs; type: cell-based, human; details: for % specific lysis (SD), HN-4: CTLs at IVS5, effector-to-target ratio 25:1; for lysis of HN-4 (in words): compared to native counterparts
Text: as §1
as §2, with “HN-4 and HN-12 cells are head and neck squamous” for “CaSki is a cervical”, “lines (HLA-A2” for “line (HPV16 E6 and E7 positive HLA-A2”

[6] = CTL line stimulated by autologous B cells pulsed with corresponding HPV-16 E6 peptide
[7] = E6 CTL line, autologous B cells with NO peptide
[8] = level compared with the native epitope
[9] = DCs infected with Ad5 [E1,E2b]-HPV (20,000 MOI)
[10] = DCs infected with Ad5 [E1,E2b]-Null (20,000 MOI)
[11] = CTL line stimulated by autologous B cells pulsed with corresponding HPV-16 E7 peptide
[12] = E7 CTL line, autologous B cells with NO peptide

Sequence | T2A2 Binding (HLA-A2 molecules; binding to HLA-A2) | IFN-γ (CTL (T cells); [6]) | IFN-γ (CTL (T cells); [7]) | interferon production (in words) (CTL (T cells)) | % specific lysis (SD), CaSki (HLA-A2+ HPV E6+ and E7+) [1] | Lysis [1] | % specific lysis (SD), ASPC-1 (HLA-A2neg HPV E6neg and E7neg) [2] | IFN-γ [3, 9] | IFN-γ [3, 10] | IFN-γ ([3]; DCs only (uninfected)) | IFN-γ ([3]; No DCs) | % specific lysis (SD), ASPC-1 [2] | % specific lysis (SD), HN-12 [4] | % specific lysis (SD), HN-4 [5] | IFN-γ (CTL (T cells); [11]) | IFN-γ (CTL (T cells); [12]) | further results
KISEYRHYV [E6-A2] | 877 | 172 pg/mL | <15.6 pg/mL | produced more interferon than the agonist counterpart | 24.2 (1.2) % | − | 0.2 (0.5) % |  |  |  |  |  |  |  |  |  | IFN-γ (CTL (T cells); [8]): −
KLPQLCTEL [E6-1, reference compound] |  | 264 pg/mL | <15.6 pg/mL |  | 34.1 (3.6) % |  | 2.4 (0.6) % | 114 pg of IFN-γ per 5×10^5 T cells/ml | <0.73 pg of IFN-γ per 5×10^5 T cells/ml | 2.17 pg of IFN-γ per 5×10^5 T cells/ml | <0.73 pg of IFN-γ per 5×10^5 T cells/ml | 0.3 (0.9) % | 16.5 (1.7) % | 21.2 (4.4) % |  |  | T2A2 Binding (HLA-A2 molecules): 853
YMLDLQPET [E7-1, reference compound] | 1,105 |  |  |  | 39.8 (1.7) % |  | 0.4 (0.3) % |  |  |  |  |  |  |  | 247 pg/mL | 155.6 pg/mL | 
KISEYRHYC [E6-2, reference compound] |  | 455 pg/mL | <15.6 pg/mL |  | 45.1 (2.8) % |  | 0.5 (0.7) % |  |  |  |  |  |  |  |  |  | 
YMLDLQPEV [E7-A1] | 1,171 |  |  |  | 27.8 (3.6) % | − | 0.9 (0.6) % |  |  |  |  |  |  |  | 230 pg/mL | <15.6 pg/mL | IFN-γ (CTL (T cells); [8]): =
RTLEDLLMGT [E7-3, reference compound] |  |  |  |  | 49.6 (8.7) % |  | 0.5 (0.1) % | 560 pg of IFN-γ per 5×10^5 T cells/ml | 70.8 pg of IFN-γ per 5×10^5 T cells/ml | 4.24 pg of IFN-γ per 5×10^5 T cells/ml | <0.73 pg of IFN-γ per 5×10^5 T cells/ml | 1.1 (0.7) % | 34.6 (3.9) % | 25.8 (3.5) % | 338 pg/mL | <15.6 pg/mL | 
QLYNKPLCDV [E6-A3] | 1,280 | 653 pg/mL | <15.6 pg/mL |  | 49.1 (11.9) % | + | 0.3 (0.9) % | 452 pg of IFN-γ per 5×10^5 T cells/ml | 0.78 pg of IFN-γ per 5×10^5 T cells/ml | 8.06 pg of IFN-γ per 5×10^5 T cells/ml | 0.9 pg of IFN-γ per 5×10^5 T cells/ml | 0.5 (0.8) % | 38.4 (7.5) % | 30.6 (5.3) % |  |  | A2 Binding (HLA-A2 molecules; [8]): +; activation of T cells directed against the epitope (in words) [3]: able to activate; lysis of CaSki cervical carcinoma cells (in words) [1]: Enhanced lysis; lysis of HN-12 (in words) [4]: more lysis; lysis of HN-4 (in words) [5]: more lysis
KLPQLCTEV [E6-A1] | 1,335 | 699 pg/mL | <15.6 pg/mL | best interferon production | 70.8 (10.7) % |  | -0.2 (6.6) % | 683 pg of IFN-γ per 5×10^5 T cells/ml | 1.0 pg of IFN-γ per 5×10^5 T cells/ml | <0.73 pg of IFN-γ per 5×10^5 T cells/ml | 0.89 pg of IFN-γ per 5×10^5 T cells/ml | 0.2 (0.9) % | 49.4 (3.1) % | 46.2 (1.1) % |  |  | HLA-A2 binding (in words) (HLA-A2 molecules): strongest; activation of T cells directed against the epitope (in words) [3]: able to activate; lysis of CaSki cervical carcinoma cells (in words) [1]: Enhanced lysis; lysis of HN-12 (in words) [4]: more lysis; lysis of HN-4 (in words) [5]: more lysis
TLHEYMLDV [E7-A2] | 1,529 |  |  | low and produced more interferon than the agonist counterpart | 41.9 (4.1) % | − | 0.6 (1.3) % |  |  |  |  |  |  |  | 95.3 pg/mL | <15.6 pg/mL | HLA-A2 binding (in words) (HLA-A2 molecules): strongest; also recorded: good binding; IFN-γ (CTL (T cells); [8]): −
RTLEDLLMGV [E7-A3] | 1,263 |  |  | best interferon production | 54.5 (7.3) % | + | 0.6 (0.1) % | 931 pg of IFN-γ per 5×10^5 T cells/ml | <0.73 pg of IFN-γ per 5×10^5 T cells/ml | <0.73 pg of IFN-γ per 5×10^5 T cells/ml | <0.73 pg of IFN-γ per 5×10^5 T cells/ml | 0.6 (0.7) % | 41.9 (2.9) % | 40.2 (1.8) % | 840 pg/mL | <15.6 pg/mL | HLA-A2 binding (in words) (HLA-A2 molecules): strongest; activation of T cells directed against the epitope (in words) [3]: able to activate; lysis of CaSki cervical carcinoma cells (in words) [1]: Enhanced lysis; lysis of HN-12 (in words) [4]: more lysis; lysis of HN-4 (in words) [5]: more lysis
TLHEYMLDL [E7-2, reference compound] |  |  |  |  | 59.2 (5.3) % |  | 0.1 (1.0) % |  |  |  |  |  |  |  | 475 pg/mL | 95.6 pg/mL | 
QQYNKPLCDL [E6-3, reference compound] | 1,020 | 338 pg/mL | 121 pg/mL |  | 38.1 (3.3) % |  | 0.6 (0.2) % | 135 pg of IFN-γ per 5×10^5 T cells/ml | 58.5 pg of IFN-γ per 5×10^5 T cells/ml | <0.73 pg of IFN-γ per 5×10^5 T cells/ml | <0.73 pg of IFN-γ per 5×10^5 T cells/ml | -1.1 (0.7) % | 10.2 (3.8) % | 7.0 (0.4) % |  |  | 
